Where a name gives a salt, the structure may show the parent alone. Read-outs that look alike come from different tables or passages of the source. *1 amine or outer side, *2 acyl side, *3 side chain or, on linkers, in order; H or OH if unused. Where a SMILES comes first, the peptide text is derived from it. Bridges are numbered along the chain shown (N, C = ends). [ ]: non-standard residue; d: D form. The star is where a group is joined. pTerphenylCO(4''-OnC5H11) = CCCCCOc1ccc(-c2ccc(-c3ccc(C(=O)*)cc3)cc2)cc1; Orn(4R-OH,5R-OH) = O=C([C@H](C[C@@H](O)[C@@H](O)N[*:3])N[*:1])[*:2]; hTyr(3S-OH,4S-OH) = N[C@H](C(=O)O)[C@H](O)[C@@H](O)c1ccc(O)cc1; Pro(3S-OH,4S-Me) = C[C@H]1CN[C@H](C(=O)O)[C@H]1O; Hyp = O=C(O)[C@@H]1C[C@@H](O)CN1
Legend:
[1] = test system: SARS-CoV-2 (USA_WA1/2020); experiment: microbe, parasite or virus in culture; format: cell-based; settings: for EC50: read-out: CPE EC50
in vitro = settings: African green monkey
[2] = Severe acute respiratory syndrome coronavirus 2, Vero C1008, SARS-CoV-2 CPE assay, Vero E6 cells, read-out: CPE % Efficacy
[3] = Severe acute respiratory syndrome coronavirus 2, Vero C1008, SARS-CoV-2 CPE assay, Vero E6 cells
[4] = Severe acute respiratory syndrome coronavirus 2, Vero C1008, SARS-CoV-2 CPE assay, Vero E6 cells, confirmed anti-SARS-CoV-2 compounds
[5] = Severe acute respiratory syndrome coronavirus 2, Vero C1008, SARS-CoV-2 CPE assay, Vero E6 cells, efficacy, read-out: CPE % Efficacy
[6] = Severe acute respiratory syndrome coronavirus 2, Vero C1008, […], DMSO 0%, no-virus control 100%, hit confirmation, read-out: CPE % efficacy
[7] = Severe acute respiratory syndrome coronavirus 2, Vero C1008, 72 h

Compound | Emax [1, 2] | cytotoxicity at 72 h (in vitro) | EC50 [1, 4] | Emax [1, 5] | cytotoxicity (in vitro) | other results
COc1c(-c2ccc3cc(NS(C)(=O)=O)ccc3c2)cc(-n2ccc(=O)[nH]c2=O)cc1C(C)(C)C [ABT-333] | 48.7% | 42.5% | – | – | – | EC50 [1, 3]: 12.6 µM
CC(/C=C/[C@@H]1C[C@]1(C)c1ccc2c(c1)C(C)(C)CCC2(C)C)=C\C(=O)O [AGN-194204] | – | 36.8% | 11.2 µM | 57% | – | –
Cn1c(NC[C@@H](N)Cc2ccccc2)nc(-c2ccncc2)c(-c2ccc3ccccc3c2)c1=O [AMG-548] | – | 35.4% | 8.91 µM | 75% | – | CC50 at 72 h (in vitro): 17.8 µM
CC#C[C@@H](CC(=O)O)c1ccc(OCc2cccc(-c3ccc(C(F)(F)F)cc3)c2)cc1 [AMG-837] | – | – | 11.2 µM | 106% | 20.2% | CC50 (in vitro): 15.8 µM
CC[C@H](CC#N)OC(=O)N[C@@H](C)c1cccc(NC(=O)Nc2ccc(-c3cnco3)c(OC)c2)c1 [AVN944] | – | 50.3% | 11.2 µM | 95.3% | – | CC50 at 72 h (in vitro): 3.98 µM
COc1cc(N2CCN(C)CC2)ccc1Nc1nccc(-c2cn(C)c3cnccc23)n1 [AZ-191] | – | – | 8.91 µM | 79.2% | 31.2% | CC50 (in vitro): 11.2 µM
CC1=C(c2ccc(O)cc2)[C@H](c2ccc(OCCN3CCCCC3)cc2)Oc2cc(O)ccc21 [Acolbifene] | – | – | 5.62 µM | 56.1% | 54.1% | CC50 (in vitro): 12.6 µM
Cc1cc(O[C@@H](CCC(F)(F)F)c2ccc(C(=O)NCCC(=O)O)cc2)cc(C)c1-c1ccc(C(C)(C)C)cc1 [Adomeglivant] | – | 37% | 3.16 µM | 49.2% | – | –
CCCCc1oc2ccccc2c1C(=O)c1cc(I)c(OCCN(CC)CC)c(I)c1 [Amiodarone hydrochloride, reference compound] | – | – | – | – | < 30% | Emax [1, 6]: 100%
CN(C)CCC=C1c2ccccc2CCc2ccccc21 [Amitriptyline hydrochloride] | 69.9% | – | – | – | 0% | EC50 [1, 3]: 14.1 µM
CCOC(=O)C1=C(COCCN)NC(C)=C(C(=O)OC)C1c1ccccc1Cl (centres unmarked) [Amlodipine] | 99.8% | – | – | – | 0% | EC50 [1, 3]: 12.6 µM
Clc1ccc2c(c1)C(N1CCNCC1)=Nc1ccccc1O2 [Amoxapine] | – | – | – | 34.1% | 13.9% | –
S=C(NCc1ccc2c(c1)OCO2)N1CCN(c2ncnc3c2oc2ccccc23)CC1 [Amuvatinib] | – | – | 3.55 µM | 69.8% | 30.1% | CC50 (in vitro): 3.16 µM
CCCCCOc1ccc(-c2ccc(-c3ccc(C(=O)N[C@H]4C[C@@H](O)[C@@H](O)NC(=O)[C@@H]5[C@@H](O)[C@@H](C)CN5C(=O)[C@H]([C@@H](C)O)NC(=O)[C@H]([C@H](O)[C@@H](O)c5ccc(O)cc5)NC(=O)[C@@H]5C[C@@H](O)CN5C(=O)[C@H]([C@@H](C)O)NC4=O)cc3)cc2)cc1 [Anidulafungin] ({pTerphenylCO(4''-OnC5H11)}-[Orn(4R-OH,5R-OH)]T[Hyp][hTyr(3S-OH,4S-OH)]T[Pro(3S-OH,4S-Me)]; lactam 1-C) | – | – | 6.95 µM | 68.4% | 33.7% | CC50 (in vitro): 8.75 µM
Cc1cccc(/C=N/Nc2cc(N3CCOCC3)nc(OCCc3ccccn3)n2)c1 [Apilimod, reference compound] | – | < 30% | – | – | – | EC50 [1, 7]: 0.023 µM; Emax [1, 6]: 104%
CCOC(=O)c1c(CSc2ccccc2)n(C)c2cc(Br)c(O)c(CN(C)C)c12 [Arbidol] | – | – | 11.2 µM | 105% | 17.3% | CC50 (in vitro): 12.6 µM
C=CC(=O)N[C@H]1CCOC[C@H]1Nc1ncc2cc(-c3c(Cl)c(OC)cc(OC)c3Cl)ccc2n1 [BLU-554] | 31.5% | 0% | – | – | – | EC50 [1, 3]: 12.6 µM
C[C@@H](C(=O)Nc1ccc(Cl)cc1)C1CCC(c2ccnc3ccc(F)cc23)CC1 (some centres unmarked) [BMS-986205] | 69.8% | – | – | – | 37.7% | –
CCCN1CCN(c2ccc(C(=O)NC3(C(=O)NCC#N)CCCCC3)cc2)CC1 [Balicatib, reference compound] | – | < 30% | – | – | – | EC50 [1, 7]: 2 µM; Emax [1, 6]: 100%
Nc1nc(Nc2ccc3c(c2)CC[C@@H](N2CCCC2)CC3)nn1-c1cc2c(nn1)-c1ccccc1CCC2 [Bemcentinib] | – | 115% | 3.55 µM | 69.6% | – | CC50 at 72 h (in vitro): 11.2 µM
CCOC(=O)[C@H](CCc1ccccc1)N[C@H]1CCc2ccccc2N(CC(=O)O)C1=O [Benazepril] | 108% | – | – | – | 0% | EC50 [1, 3]: 12.6 µM
CN1[C@@H]2CC[C@H]1C[C@@H](OC(c1ccccc1)c1ccccc1)C2 [Benztropine mesylate] | 59% | – | – | – | 0% | –
